Experimental data as given in US20050014692A1, “Lactate dehydrogenase as a novel target and reagent for diabetes therapy” (priority 2003, published 2005).
Entries after “also recorded” stand apart in the source; their conditions may differ.

Columns and labels:
[1] = test system: cell lines derived from rat INS-1 cells; conditions: glucose-responsive clones; in direct correlation with changes in pyruvate cycling; cited from earlier work
[2] = test system: glycerol kinase overexpressing 832/13 cells; experiment: 13C studies in glycerol kinase overexpressing 832/13 cells (insulin secretion, lactate output, pyruvate cycling); format: cell-based, rat
From the text: FIG. 9 depicts the effect of glycerol kinase overexpression in 832/13 cells on insulin excretion, lactate output and pyruvate cycling.
In contrast, pyruvate cycling and lactate output are higher in response to glycerol than to glucose.

832/13 cells = experiment: Insulin secretion assay in 832/13 cells (radioimmunoassay); format: cell-based, rat
Protocol: FIG. 3. Stimulation of insulin secretion by lactate, pyruvate, and glucose in 832/13 cells. Confluent, insulin secreting 832/13 cells were stimulated for 2 hours with various concentrations of secretagogues as indicated in the figure, and IS was determined by radioimmunoassay of the cell supernatant.
FIG. 4. The effect of rat LDHA overexpression on glucose, pyruvate, and lactate-stimulated insulin secretion in 832/13 cells. 832/13 cells were treated with adenovirus expressing rat LDHA (AdLDH) and beta-galactosidase (Adbetagal), respectively. The LDH activity in cell extracts was monitored by the decrease in absorbance at 340 nm (insert) and the insulin response to glucose, pyruvate, and lactate was examined by radioimmunoassay.
FIG. 7B. The effect of the LDH inhibitor oxamate on insulin secretion in 832/13 cells. Cells were incubated with ^13C labeled glucose for 4 hours in the presence or absence of oxamate.
FIG. 14. The effect of mitLDHA and LDHA on fuel-mediated IS in the 832/13 cells. The inset depicts the activity of LDH for each experiment.
The cell line 832/13 was created from INS-1 insulinoma β-cells as described earlier (Hohmeier et al. (2000) Diabetes 49:424430). Cells were cultured in RPMI-1640 medium containing 11 mM glucose supplemented with 10% fetal bovine serum, 10 mM HEPES, 2 mM glutamine, 1 mM sodium pyruvate and […] β-mercaptoethanol. Media was routinely changed every second day. […]
Insulin secretion was assayed in HEPES buffered saline solution (HBSS) (114 mM NaCl, 4.7 mM KCl, 1.2 mM KH2PO4, 1.16 mM MgSO4, 20 mM HEPES, 2.5 mM CaCl2, 25.5 mM NaHCO3, pH 7.2 containing 0.2% bovine serum albumin (essentially fatty acid free). Cells were washed in 1 ml of HBSS, preincubated in 1.5 ml of HBSS for 2 hour prior to a 2 hour incubation in the presence of secretagogues as indicated in the figures. The insulin levels were determined by radioimmunoassay with the Coat-A-Count kit (ICN Pharmaceuticals, Costa Mesa, Calif.) and lactate output was determined with a Lactate Reagent kit (Sigma, St. Louis, Mo.) according to protocols outlined by the manufacturer.

O=C(O)Cc1ccccc1 [phenylacetic acid]
effect on glucose-stimulated IS [1]: impaired

OCC(O)CO [glycerol]
lactate output, compared with glucose [2]: higher | pyruvate cycling, compared with glucose [2]: higher | stimulation of insulin secretion, compared with glucose [2]: to the same extent

malate in the form of methyl ester
effect on glucose-stimulated IS [1]: potentiated

CC(O)C(=O)O (centres unmarked) [lactate]
stimulation of insulin secretion as secretagogue (832/13 cells; 832/13 cells overexpressing LDHA (AdLDH treated)): as effective as the other two fuels; also recorded: as effective as glucose or pyruvate | stimulation of insulin secretion as secretagogue (832/13 cells; 832/13 cells without LDHA overexpression, 2 hours, relative to glucose or pyruvate): poor secretagogue; also recorded: only a weak stimulator | stimulation of insulin secretion as secretagogue (832/13 cells; 832/13 cells without LDHA overexpression, 2 hours, relative to glucose or pyruvate, listed as Lactate): poor secretagogue
